For assay [1], the system named is Mus musculus. The assay can be described thus: Anti-hyperlipidemic activity in high fat diet induced obese C57BL/6J mouse model assessed as decrease in hepatic triglyceride level at 200 mg/kg. It counts as functional, organism-based.
Assay [2] deals with Mus musculus. The assay can be described thus: Anti-hyperlipidemic activity in high fat diet induced obese C57BL/6J mouse model assessed as decrease in total cholesterol level at 200 mg/kg. It counts as functional, organism-based.
The subject of assay [3] is Mus musculus. Kind of assay: Anti-hyperlipidemic activity in high fat diet induced obese C57BL/6J mouse model assessed as decrease in hepatic total cholesterol level at 200 mg/kg. It counts as functional, organism-based.
The test system of assay [4] is Mus musculus. Kind of assay: Anti-hyperlipidemic activity in high fat diet induced obese C57BL/6J mouse model assessed as improvement in insulin sensitivity at 200 mg/kg by insulin tolerance test. Type of assay: functional, organism-based.
In assay [5] the test system is Mus musculus. The assay can be described thus: Anti-hyperlipidemic activity in high fat diet induced obese C57BL/6J mouse model assessed as decrease in hepatic low density lipoprotein cholesterol level at 200 mg/kg. It counts as functional, organism-based.
In assay [6] the target is T1, Bile acid receptor (Homo sapiens, UniProt Q96RI1).
T1 sequence (Q96RI1 whole entry): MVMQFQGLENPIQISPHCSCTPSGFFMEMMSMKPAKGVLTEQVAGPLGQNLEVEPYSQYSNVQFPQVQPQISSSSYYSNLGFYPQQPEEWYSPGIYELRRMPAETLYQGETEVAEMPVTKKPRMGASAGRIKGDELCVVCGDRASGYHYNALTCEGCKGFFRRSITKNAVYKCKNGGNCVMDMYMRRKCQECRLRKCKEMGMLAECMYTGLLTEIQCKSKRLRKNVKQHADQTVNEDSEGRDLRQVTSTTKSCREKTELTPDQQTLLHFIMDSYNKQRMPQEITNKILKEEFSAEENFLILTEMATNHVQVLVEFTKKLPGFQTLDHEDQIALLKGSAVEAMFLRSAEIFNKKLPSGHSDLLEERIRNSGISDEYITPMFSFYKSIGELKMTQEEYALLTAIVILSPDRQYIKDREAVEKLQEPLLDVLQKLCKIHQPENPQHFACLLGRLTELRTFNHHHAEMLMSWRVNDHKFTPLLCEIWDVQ
Kind of assay: Agonist activity at Gal4-fused FXR LBD (unknown origin) transfected in HEK293T cells co-transfected with Peak12-Gal4UAS-luciferase reporter assessed as receptor transactivation incubated for 24 hrs by firefly luciferase assay. Type of assay: cell-based. (In general: A reporter such as luciferase makes a cellular process visible.)

pEC50: −log10 of the molar value. Calls of active or inactive are those of the source. The rule behind the calls is not given here.

Turning to `Cc1ccc(Cl)cc1N1CCN(C(=O)C23CC4CC(CC(C4)C2)C3)CC1`, the outcome in assay [1] was Active. In addition, the result in assay [2], in assay [3], in assay [4] and in assay [5] was inactive.
Turning to `O=C(N1CCN(c2cc(Cl)ccc2O)CC1)C12CC3CC(CC(C3)C1)C2`, the pEC50 (in general, the EC50 on a negative log10 scale, so that one unit is a factor of ten) in assay [6] is 5.67.
